Tested on: CaCo-2 cells
Assay: Dose-response study of cell viability (MTT assay) on CaCo-2 cells
Type: cell-based, human
Details: p<0.05 compared to the other tested doses
Method: The human intestinal epithelial cell line CaCo-2, purchased from the American Type Culture Collection (ATCC), was used as an experimental model to predict the characteristics of intestinal absorption following oral administration. This cell line was cultured in Dulbecco's Modified Eagle Medium/Nutrient F-12 Ham (DMEM-F12, Merck Life Science, Rome, Italy) containing 10% FBS (Merck Life Science, Rome, Italy), 2 mM of L-glutamine and 1% penicillin-streptomycin (Merck Life Science, Rome, Italy) and kept in an incubator at 37 °C and 5% CO2. The experiments were conducted using cells with a passage number comprised between 26 and 32 to maintain the correct properties of permeability and paracellular transport. The cells were seeded in various ways, including 1 × 10^4 cells in 96-well plates, in order to study cell viability and ROS production, synchronising the cells for 8 hours with DMEM without phenol red and supplemented with 0.5% FBS, 2 mM L-glutamine and 1% penicillin-streptomycin at 37 °C; 2 × 10^4 cells in Transwell® 6.5 mm plates (Corning® Costar®, Merck Life Science, Rome, Italy) with a polycarbonate membrane insert with 0.4 µm pores (Corning® Costar®, Merck Life Science, Rome, Italy) in a 24-well plate in order to perform the absorption analyses.
The analysis of cell viability was carried out with a classic technique based on the MTT in vitro toxicology assay kit (Merck Life Science, Rome, Italy), following the manufacturer's instructions. In fact, at the end of the treatment, the cells were incubated with 1% MTT dye for 2 hours in an incubator at 37 °C, 5% CO2 and 95% humidity; the purple formazan crystals were then dissolved in an equal volume of MTT solubilisation solution. Absorbance was analysed with a spectrophotometer (Infinite 200 Pro MPlex, Tecan, Männedorf, Switzerland) at 570 nm with correction at 690 nm, and the results were expressed versus the control ([…]), which represented the untreated cells. The results represent the percentage of viable cells versus the control, which makes it possible to understand whether the stimulation is safe or not.
With the aim of evaluating what the best concentration of each selected substance might be, and to prevent any cytotoxic effect, the viability of the CaCo-2 cells was analysed by means of the MTT assay.
• L. crispatus (10 mg/ml; 20 mg/ml; 30 mg/ml; 40 mg/ml; 50 mg/ml) • NAC (0.3 mM; 0.6 mM; 1 mM) • lycopene (0.1 µM; 0.2 µM; 0.5 µM) • vitamin D3 (10 nM; 100 nM) • folic acid (10 µM; 50 µM; 125 µM; 500 µM)
Therefore, these were maintained for all the subsequent experiments.

Structure (SMILES)	most effective concentration (cell viability)
Nc1nc(=O)c2nc(CNc3ccc(C(=O)N[C@@H](CCC(=O)O)C(=O)O)cc3)cnc2[nH]1 [Folic acid, (S)-2-(4-((2-amino-4-hydroxypteridin-6-yl)-methylamino)benzamide)pentanedioic acid]	50 µM
C=C1CC[C@H](O)C/C1=C/C=C1\CCC[C@]2(C)[C@@H]([C@H](C)CCCC(C)C)CC[C@@H]12 [Vitamin D, cholecalciferol]	0.01 µM
CC(C)=CCC/C(C)=C/C=C/C(C)=C/C=C/C(C)=C/C=C/C=C(C)/C=C/C=C(C)/C=C/C=C(\C)CCC=C(C)C [Lycopene, (6E,8E,10E,12E,14E,16E,18E,20E,22E,24E,26E)-2,6,10,14,19,23,27,31-Octamethyl-dotriaconta-2,6,8,10,12,14,16,18,20,22,24,26,30-tridecane]	0.2 µM
CC(=O)N[C@@H](CS)C(=O)O [NAC, N-acetyl-L-cysteine]	600 µM
